According to patent publication US10668134B2, “Dental pretreatment material and dental tissue regeneration kit” (National Center for Geriatrics and Gerontology, priority 2016, dated 2020):

What was measured:
[1] = system: post-pulpectomy root canal of a tooth of the canine of middle or advanced age; experiment: Dental pulp regeneration after trypsin pretreatment plus root canal filler containing CCR3 antagonist; format: in vivo, dog; conditions: pretreatment with trypsin (50 μg/ml with nanobubble liquid, 10 minutes) then filler with 200 ng; after 14 days; vs no pretreatment
Protocol: After 7 to 14 days following a pulpectomy treatment, the treated root canal underwent alternate washing, and then, washing with physiologic saline. Smear clean was then allowed to react for 2 minutes. The root canal was then further washed with physiologic saline, and dried. Further, FRANCETIN⋅T⋅POWDER (2,500 USP of crystalized trypsin per 10 mg) (MOCHIDA PHARMACEUTICAL CO., LTD.) was mixed with a nanobubble liquid into a 50 μg/ml (0.05%) solution. The solution was allowed to react for 10 minutes. The root canal was washed with physiologic saline, and dried. In the same manner as in Example 3, a root canal filler was prepared by suspending 1×10^6 allogeneic dental pulp stem cells, which had been membrane-isolated, in 40 μl of a scaffold (Koken Atelocollagen Implant), and by suspending 3 μl of a 100 μg/ml G-CSF (NEUTROGIN). Further a CCR3 antagonist (SB328437, 200 ng) was added to the root canal filler. The root canal filler was injected into the post-pulpectomy root canal. After 14 days following the transplantation, the tooth was extracted, and 5 μm paraffin sections were prepared. The paraffin sections were then H-E stained to undergo morphological observation.

[2] = system: Eleventh-passage human periodontal ligament cells; experiment: Senescence marker expression in senescent cells of human periodontal membrane (real-time RT-PCR); format: cell-based; conditions: 48 hours; for IL1β senescence marker expression / IL6 senescence marker expression / IL8 senescence marker expression / p16 senescence marker expression / p53 senescence marker expression: control = 1
Protocol: (§1) Eleventh-passage human periodontal ligament cells were plated in DMEM containing 10% FBS in collagen-coated 35 mm dishes (IWAKI) at a density of 2×10^4 cells/ml. After 20 hours, ALK5 inhibitor (SB431542) was added to final concentrations of 5 ng/μl and 10 ng/μl. Further, CCR3 antagonist (SB328437) was added to final concentrations of 5 ng/μl and 10 ng/μl. After 48 hours, mRNA was extracted, and real-time RT-PCR was performed on senescence markers, namely p16, p53, IL6, IL1b, IL8, and TNFα (Table 4).

[3] = system: Eleventh-passage human periodontal ligament cells; experiment: Expression of migratory capacity-related factors in senescent cells of human periodontal membrane (real-time RT-PCR); format: cell-based; conditions: control = 1
Protocol: as §1
Real-time RT-PCR was performed on migratory capacity-related factors, namely, MMP9, MMP3, and MMP2 (Table 8) using mRNA similar to that described in 2 above.

[4] = system: post-pulpectomy root canal of a tooth of the canine; experiment: Dental pulp regeneration after pulpectomy, allogeneic transplantation of dental pulp stem cells with root canal filler containing ALK5 inhibitor or CCR3 antagonist; format: in vivo, dog
Description: For each tooth, the root canal was enlarged with #50-55 to the apex, and was washed alternately with a 5% sodium hypochlorite solution and a 3% hydrogen peroxide solution, followed by washing with physiologic saline. The root canal was completely dried with paper points, and hemorrhage was controlled. The root canal was completely closed with a temporary seal of cement and resin. After 7 to 14 days following the pulpectomy, the temporary seal was removed, and the root canal underwent alternate washing and with physiologic saline. Smearclean was then allowed to react for 2 minutes. The root canal was then further washed with physiologic saline, and dried. A root canal filler was prepared by suspending 1×10^6 allogenic dental pulp stem cells, which had been membrane-separated, in 40 μl of a scaffold (Koken Atelocollagen Implant, KOKEN CO., LTD.), and by suspending 3 μl of a 100 μg/ml G-CSF (NEUTROGIN, Chugai Pharmaceutical Co., Ltd.). Further, an ALK5 inhibitor (SB431542, 200 ng) was added to part of the root canal filler. A CCR3 antagonist (SB328437, 200 ng) was added to another part of the root canal filler. The root canal filler with the ALK5 inhibitor or the CCR3 antagonist was injected into associated root canal such that no air bubbles were involved. A hemostatic gelatin sponge (Spongel) was put on the root canal filler. The cavity was completely sealed with cement and resin. After 14 days and 60 days following the transplantation, the teeth were extracted. According to a common method, 5 μm paraffin sections of longitudinal cross section were prepared. The paraffin sections were then H-E stained to undergo morphological observation. Amounts of regenerated dental pulp of four sections were measured for each sample, and an average amount of three samples (14-day samples) or an average amount of four samples (60-day samples) was determined to be the amount of regenerated dental pulp of the respective sample. To analyze angiogenesis, the 60-day samples were immunostained with BS-1 lectin. To analyze neurite outgrowth, the 60-day samples were immunostained with PGP 9.5.

[5] = canine of middle or advanced age, 200 ng in root canal filler, after 14 days, vs filler without
[6] = canine of middle or advanced age, 200 ng in root canal filler, after 60 days, vs filler without
[7] = canine of middle or advanced age, 200 ng, after 60 days

Compound: COC(=O)[C@H](Cc1ccc([N+](=O)[O-])cc1)NC(=O)c1cccc2ccccc12 [CCR3 antagonist, SB328437]
- amount of regenerated dental pulp tissue [1]: significant increase
- IL1β senescence marker expression ([2]; 5 ng/μl): 0.09
- IL6 senescence marker expression ([2]; 5 ng/μl): 0.09
- IL8 senescence marker expression ([2]; 5 ng/μl): 0.12
- p16 senescence marker expression ([2]; 5 ng/μl): 0.14
- p53 senescence marker expression ([2]; 5 ng/μl): 0.56
- IL1β senescence marker expression ([2]; 10 ng/μl): 0.31
- IL6 senescence marker expression ([2]; 10 ng/μl): 0.20
- IL8 senescence marker expression ([2]; 10 ng/μl): 0.26
- p16 senescence marker expression ([2]; 10 ng/μl): 0.30
- p53 senescence marker expression ([2]; 10 ng/μl): 0.92
- MMP2 expression (migratory capacity-related factor) ([3]; 5 ng/μl): 0.54
- MMP3 expression (migratory capacity-related factor) ([3]; 5 ng/μl): 2.34
- MMP9 expression (migratory capacity-related factor) ([3]; 5 ng/μl): 0
- MMP2 expression (migratory capacity-related factor) ([3]; 10 ng/μl): 0.75
- MMP3 expression (migratory capacity-related factor) ([3]; 10 ng/μl): 0.54
- MMP9 expression (migratory capacity-related factor) ([3]; 10 ng/μl): 0.63
- amount of regenerated dental pulp tissue [4, 5]: significant increase
- amount of regenerated dental pulp tissue [4, 6]: significant increase
- neurite outgrowth (PGP 9.5) [4, 7]: significant increase
- amount of regenerated dental pulp tissue ([4]; canine of young age, 200 ng, after 14 days): did not cause any significant increase

Compound: NC(=O)c1ccc(-c2nc(-c3ccc4c(c3)OCO4)c(-c3ccccn3)[nH]2)cc1 [ALK5 inhibitor, SB431542]
- TNFα mRNA expression ([2]; 5 ng/μl and 10 ng/μl added): significantly suppressed
- IL1β senescence marker expression ([2]; 5 ng/μl): 0.16
- IL6 senescence marker expression ([2]; 5 ng/μl): 0.20
- IL8 senescence marker expression ([2]; 5 ng/μl): 0.15
- p16 senescence marker expression ([2]; 5 ng/μl): 0.36
- p53 senescence marker expression ([2]; 5 ng/μl): 0.92
- IL1β senescence marker expression ([2]; 10 ng/μl): 0.03
- IL6 senescence marker expression ([2]; 10 ng/μl): 0.04
- IL8 senescence marker expression ([2]; 10 ng/μl): 0.04
- p16 senescence marker expression ([2]; 10 ng/μl): 0.10
- p53 senescence marker expression ([2]; 10 ng/μl): 0.50
- MMP2 expression (migratory capacity-related factor) ([3]; 5 ng/μl): 0.93
- MMP3 expression (migratory capacity-related factor) ([3]; 5 ng/μl): 1.08
- MMP9 expression (migratory capacity-related factor) ([3]; 5 ng/μl): 0.10
- MMP2 expression (migratory capacity-related factor) ([3]; 10 ng/μl): 1.02
- MMP3 expression (migratory capacity-related factor) ([3]; 10 ng/μl): 0.96
- MMP9 expression (migratory capacity-related factor) ([3]; 10 ng/μl): 0.06
- amount of regenerated dental pulp tissue [4, 5]: significant increase
- amount of regenerated dental pulp tissue [4, 6]: significant increase
- density of angiogenesis (BS-1 lectin) [4, 7]: significant increase
